According to paper PMC11784145, “Efficacy and in vitro pharmacological assessment of novel N-hydroxypyridinediones as hepatitis B virus ribonuclease H inhibitors” (Antimicrobial Agents and Chemotherapy, 2024):

Columns and labels:
[1] = Solubility limit, turbidimetric assay; type: physicochemical; details: upper limit 200 µM
Method: Solubility limits were determined by a turbidimetric assay, as described ([27]), with the solubility limit being defined as the compound concentration where light scattering began to rise. Two or more replicate assays were performed for each compound at each pH on different days.

MDCK-MDR1 cells = experiment: MDCK-MDR1 permeability assay; type: in vitro ADME; details: 10 µM compound, 2 h; for Efflux Ratio (Papp B-A/A-B): MDCK-MDR1 cells, actively effluxed if >2
Method: MDCK-MDR1 cells were seeded on 96-well, high protein binding immobilon-P membrane plates (Millipore Sigma) at 2.4 × 10^4 cells per well for 4 days. Media were then decanted, and the cells were equilibrated with Hanks balanced salt solution (HBSS) supplemented with 10 mM CaCl2 and 1 mM MgCl2 for 1 h. Compound (10 µM) was then added to the apical side to assess active transport and to the basolateral side to assess active efflux. The cells were incubated with compound for 2 h with shaking at 37°C. Samples (50 µL) were retrieved from the recipient wells and mixed with 150 µL acetonitrile (ACN) and internal standard (1:1 of 200 ng/mL chloridazon:enalapril). Samples were pelleted at 4,000 × g and the supernatant was analyzed by liquid-chromatography/tandem mass spectrometry (LCMS/MS) analyses. […]. Active efflux was determined by Papp B/A/Papp A/B.
Tight junction formation was assessed by lucifer yellow permeation immediately following sample retrieval. Briefly, lucifer yellow (10 µM) was added to the apical wells and HBSS was added to the basolateral wells for 1 h with shaking at 37°C, after which sample was collected from the basolateral side and read on a Biotek Synergy HTX multi-mode plate reader with 485/20 excitation and 520/20 emission filters defined by the Center Wavelength/band-pass values. The percent lucifer yellow fluorescence was determined by subtracting the HBSS relative fluorescent units (RFU) from the sample RFU and normalizing to the lucifer yellow positive control RFU. Lucifer yellow permeation was determined to be acceptable if ≤3%.

[2] = Parallel artificial membrane permeability assay (PAMPA); type: in vitro ADME
Method: Compound Papp values were determined by normalizing the experimental compound absorbance to the compounds’ absorbances at equilibrium, membrane porosity, buffer volume, and time (s). Two or more replicate assays were obtained on separate days for each pH.

plasma proteins = experiment: Plasma protein binding, rapid equilibrium dialysis; type: in vitro ADME, bovine; details: 10 µM compound, DMEM-F12 with 10% FBS (0.25 mg/mL BSA), 4 h, 37°C
Method: Plasma protein binding was performed using the Pierce rapid equilibrium dialysis device (Thermo Fisher) per the manufacturer’s instructions, as described ([27]). Briefly, the sample wells contained DMEM-F12 supplemented with 10% FBS spiked with 10 µM compound, and the buffer wells contained phosphate-buffered saline (PBS). The plate was incubated for 4 h at 37°C with shaking, after which 50 µL was retrieved from the buffer and sample wells and added to ice-cold acetonitrile and the internal standard described above. Samples were matrix-matched with PBS supplemented with 10% FBS or PBS alone, respectively, and centrifuged at 4,000 × g for 5 min to pellet plasma proteins. The supernatants were analyzed by LCMS/MS and percent compound bound was determined, as described previously ([27]).

Microsome stability = type: in vitro ADME, human; details: human liver microsomes; for Clearance (intrinsic clearance, Clint) / Half-life: 1 µM compound, 30 min, NADPH
[3] = biological target: T1, human ribonuclease H1 (huRNase H1) (Homo sapiens, UniProt O60930); experiment: Human RNase H1 inhibition, fluorescent biochemical assay
T1 construct: made in house; host or cells: Escherichia coli
T1 sequence (O60930 1-286): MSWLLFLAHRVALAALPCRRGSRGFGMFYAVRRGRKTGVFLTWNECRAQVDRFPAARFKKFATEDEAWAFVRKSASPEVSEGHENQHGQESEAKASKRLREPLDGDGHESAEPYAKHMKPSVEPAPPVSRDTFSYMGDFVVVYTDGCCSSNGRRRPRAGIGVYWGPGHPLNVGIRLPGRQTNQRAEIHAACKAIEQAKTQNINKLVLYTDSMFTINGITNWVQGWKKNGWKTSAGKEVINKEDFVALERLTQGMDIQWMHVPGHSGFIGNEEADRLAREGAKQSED

[4] = pH 5 (fed simulated intestinal fluid)
[5] = pH 6.5 (fasted simulated intestinal fluid)

Structure (SMILES) | Average Sol (solubility limit) [1, 4] [µM] | Sol 1 (solubility limit) ([1]; pH 5, replicate 1) [µM] | Sol 2 (solubility limit) ([1]; pH 5, replicate 2) [µM] | Average Sol (solubility limit) [1, 5] [µM] | Sol 1 (solubility limit) ([1]; pH 6.5, replicate 1) [µM] | Sol 2 (solubility limit) ([1]; pH 6.5, replicate 2) [µM] | Average Sol (solubility limit) ([1]; pH 7.4 (DMEM-F12 with 10% FBS)) [µM] | Sol 1 (solubility limit) ([1]; pH 7.4, replicate 1) [µM] | Sol 2 (solubility limit) ([1]; pH 7.4, replicate 2) [µM] | MDCK-MDR1 Papp category, apical to basolateral (A-B) (MDCK-MDR1 cells) | MDCK-MDR1 Papp category, basolateral to apical (B-A) (MDCK-MDR1 cells) | Efflux Ratio (Papp B-A/A-B) (MDCK-MDR1 cells) | Avg Papp (PAMPA) ([2]; FeSSIF pH 5) [×10⁻⁶ cm/s] | Interpretation (PAMPA Papp) ([2]; FeSSIF pH 5) | Papp 1 (PAMPA) ([2]; FeSSIF pH 5, replicate 1) [×10⁻⁶ cm/s] | Papp 2 (PAMPA) ([2]; FeSSIF pH 5, replicate 2) [×10⁻⁶ cm/s] | Avg Papp (PAMPA) ([2]; pH 7.4) [×10⁻⁶ cm/s] | PAMPA apparent permeability (Papp) category ([2]; pH 7.4) | Papp 1 (PAMPA) ([2]; pH 7.4, replicate 1) [×10⁻⁶ cm/s] | Papp 2 (PAMPA) ([2]; pH 7.4, replicate 2) [×10⁻⁶ cm/s] | other results
CC(=NOCc1ccc(F)c(F)c1)c1c(C)cc(=O)n(O)c1O [Compound 1617] | > 200 | > 200 | > 200 | > 200 | > 200 | > 200 | > 200 | > 200 | > 200 | low (low (<1*10^−6 cm/s)) | low (low (<1*10^−6 cm/s)) | 1.01 | 15.1 | H (H: Papp > 1*10-6) | 4.04 | 26.1 | 0.95 | low (low (<1 × 10^−6 cm/s)) | 1.46 | 0.478 | Papp 3 (PAMPA) ([2]; pH 7.4, replicate 3): 0.911 ×10⁻⁶ cm/s; Percent bound (plasma proteins): 100 ± 0.019%; Intrinsic clearance (Clint) rate category (Microsome stability): medium (medium Clint rates (≥ 8.6 and ≤47)); Clearance (intrinsic clearance, Clint) (Microsome stability): 45.7 µL/min/mg; Half-life (Microsome stability): 23.0 min; Selectivity of HBV replication inhibition over huRNase H1 (huRNase H1 IC50 versus HBV EC50) [3]: at least 10 fold
CC(=NOCc1cccc(F)c1)c1c(C)cc(=O)n(O)c1O [Compound 1618] | > 200 | > 200 | > 200 | > 200 | > 200 | > 200 | > 200 | > 200 | > 200 | low (low (<1*10^−6 cm/s)) | low (low (<1*10^−6 cm/s)) | 0.84 | 16.4 | H (H: Papp > 1*10-6) | 15.4 | 17.4 | 0.489 | low (low (<1 × 10^−6 cm/s)) | 0.395 | 0.582 | Sol 3 (solubility limit) ([1]; pH 6.5, replicate 3): > 200 µM; Percent bound (plasma proteins): 93.5 ± 0.129%; Intrinsic clearance (Clint) rate category (Microsome stability): low (low Clint (µL/min/mg protein) rates (<8.6)); Clearance (intrinsic clearance, Clint) (Microsome stability): 5.71 µL/min/mg; Half-life (Microsome stability): >30 min; Selectivity of HBV replication inhibition over huRNase H1 (huRNase H1 IC50 versus HBV EC50) [3]: at least 10 fold
